According to patent US6737383B1, “Herbicidal oxadiazolidines” (priority 1999, dated 2004):

Key:
blackgrass = experiment: Test B pre/postemergence blackgrass; assay type: in vivo, Alopecurus myosuroides
In short: (§1)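 Response is a visual 0-to-10 score relative to untreated plants, where 0 means no effect and 10 means complete control, taken twelve to sixteen days after application. Treatments went onto soil at planting and onto foliage of 1- to 4-leaf plants, using a surfactant-containing non-phytotoxic solvent.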

soybean = experiment: Test B pre/postemergence soybean; assay type: in vivo, Glycine max
In short: as §1

corn = experiment: Test B pre/postemergence corn; assay type: in vivo, Zea mays
In short: as §1

velvetleaf = experiment: Test B pre/postemergence velvetleaf; assay type: in vivo, Abutilon theophrasti
In short: as §1

purple nutsedge = experiment: Test B pre/postemergence purple nutsedge; assay type: in vivo, Cyperus rotundus
In short: as §1

bedstraw = experiment: Test B pre/postemergence bedstraw; assay type: in vivo, Galium aparine
In short: as §1

duck salad = experiment: Test B flood test duck salad; assay type: in vivo, Heteranthera limosa
In short: (§2)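 Plants were grown to the 2-leaf stage before treatment with test chemical, then held in a greenhouse for twelve to sixteen days. Injury was visually rated against untreated controls on a 0–10 scale, where 0 is no effect and 10 is complete control.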

rape = experiment: Test B pre/postemergence rape; assay type: in vivo, Brassica napus
In short: as §1

bamyardgrass = experiment: Test B flood test barnyardgrass; assay type: in vivo, Echinochloa crus-galli
In short: as §2

pigweed = experiment: Test B pre/postemergence pigweed; assay type: in vivo, Amaranthus retroflexus
In short: as §1

rice = experiment: Test B flood test rice; assay type: in vivo, Oryza sativa
In short: as §2

sugar beet = experiment: Test B pre/postemergence sugar beet; assay type: in vivo, Beta vulgaris
In short: as §1

smallflower flatsedge = experiment: Test B flood test smallflower flatsedge; assay type: in vivo, Cyperus difformis
In short: as §2

giant foxtail = experiment: Test B pre/postemergence giant foxtail; assay type: in vivo, Setaria faberii
In short: as §1

morningglory = experiment: Test B pre/postemergence morningglory; assay type: in vivo, Ipomoea hederacea
In short: as §1

surinam grass = experiment: Test B pre/postemergence surinam grass; assay type: in vivo, Brachiaria decumbens
In short: as §1

[1] = Postemergence, Rate 62 g/ha, scale 0 to 10, 0 is no effect, 10 is complete control
[2] = Postemergence, Rate 125 g/ha, scale of 0 to 10 where 0 is no effect and 10 is complete control
[3] = Postemergence, Rate 250 g/ha, scale of 0 to 10, 0 is no effect, 10 is complete control
[4] = Postemergence, Rate 500 g/ha, scale of 0 to 10 where 0 is no effect and 10 is complete control
[5] = Preemergence, Rate 62 g/ha, scale 0 to 10 (0 no effect, 10 complete control)
[6] = Preemergence, Rate 125 g/ha, scale of 0 to 10 where 0 is no effect and 10 is complete control
[7] = Preemergence, Rate 250 g/ha, scale 0 to 10 (0 no effect, 10 complete control)
[8] = Preemergence, Rate 500 g/ha, scale of 0 to 10 where 0 is no effect and 10 is complete control
[9] = Rate 62 g/ha, flood test species, Pre-emergence, visual evaluation after twelve to sixteen days
[10] = Rate 125 g/ha, under heading Pre-emergence, flood test species, visual evaluation after twelve to sixteen days
[11] = Rate 250 g/ha, Pre-emergence (flood test species), scale 0 to 10, 0 is no effect, 10 is complete control
[12] = Rate 500 g/ha, Pre-emergence section of Table B, 0 to 10 scale (0 no effect, 10 complete control)

`CC(=O)NCn1c(=O)on(C(=O)N(c2ccccc2)C(C)C)c1=O` [Compound 621] was tested, and the “Plant response rating, Blackgrass” value (blackgrass; [1]) was 0, the “Plant response rating, Blackgrass” value (blackgrass; [2]) was 0 and the “Blackgrass plant response rating” value (blackgrass; [3]) was 0. For the same molecule, the “Plant response rating, Blackgrass” value (blackgrass; [4]) was 0, the “Blackgrass plant response rating” value (blackgrass; [5]) was 0 and the “Blackgrass plant response rating” value (blackgrass; [6]) was 0. For the same molecule, the “Plant response rating, Blackgrass” value (blackgrass; [7]) was 0, the “Blackgrass plant response rating” value (blackgrass; [8]) was 0 and the “Plant response rating, Soybean” value (soybean; [1]) was 1. For the same molecule, the “Plant response rating, Soybean” value (soybean; [2]) was 5, the “Soybean plant response rating” value (soybean; [3]) was 5 and the “Soybean plant response rating” value (soybean; [5]) was 0. For the same molecule, the “Soybean plant response rating” value (soybean; [6]) was 0, the “Plant response rating, Soybean” value (soybean; [7]) was 0 and the “Plant response rating, Soybean” value (soybean; [8]) was 3. For the same molecule, the “Plant response rating, Corn” value (corn; [1]) was 0, the “Plant response rating, Corn” value (corn; [2]) was 0 and the “Corn plant response rating” value (corn; [3]) was 0. The “Plant response rating, Corn” value (corn; [4]) was 0, the “Corn plant response rating” value (corn; [5]) was 0 and the “Corn plant response rating” value (corn; [6]) was 0. The “Plant response rating, Corn” value (corn; [7]) was 0, the “Plant response rating, Corn” value (corn; [8]) was 0 and the “Plant response rating, Velvetleaf” value (velvetleaf; [1]) was 0. For the same molecule, the “Plant response rating, Velvetleaf” value (velvetleaf; [2]) was 0, the “Velvetleaf plant response rating” value (velvetleaf; [3]) was 0 and the “Velvetleaf plant response rating” value (velvetleaf; [5]) was 0. For the same molecule, the “Velvetleaf plant response rating” value (velvetleaf; [6]) was 0, the “Plant response rating, Velvetleaf” value (velvetleaf; [7]) was 0 and the “Plant response rating, Velvetleaf” value (velvetleaf; [8]) was 0. The “Plant response rating, Nutsedge” value (purple nutsedge; [1]) was 0, the “Plant response rating, Nutsedge” value (purple nutsedge; [2]) was 0 and the “Nutsedge plant response rating” value (purple nutsedge; [3]) was 0. The “Plant response rating, Nutsedge” value (purple nutsedge; [4]) was 0, the “Nutsedge plant response rating” value (purple nutsedge; [5]) was 0 and the “Nutsedge plant response rating” value (purple nutsedge; [6]) was 0. For the same molecule, the “Plant response rating, Nutsedge” value (purple nutsedge; [7]) was 0, the “Plant response rating, Nutsedge” value (purple nutsedge; [8]) was 0 and the “Plant response rating, Bedstraw” value (bedstraw; [2]) was 0. For the same molecule, the “Bedstraw plant response rating” value (bedstraw; [5]) was 0, the “Bedstraw plant response rating” value (bedstraw; [6]) was 0 and the “Plant response rating, Bedstraw” value (bedstraw; [7]) was 0. For the same molecule, the “Bedstraw plant response rating” value (bedstraw; [8]) was 0, the “Plant response rating, Ducksalad (0 to 10 scale, 0 is no effect, 10 is complete control)” value (duck salad; [9]) was 0 and the “Ducksalad plant response rating (0 to 10 scale, 0 is no effect, 10 is complete control)” value (duck salad; [10]) was 0. The “Ducksalad plant response rating” value (duck salad; [11]) was 0, the “Ducksalad plant response rating” value (duck salad; [12]) was 0 and the “Plant response rating, Rape” value (rape; [1]) was 0. The “Plant response rating, Rape” value (rape; [2]) was 0, the “Rape plant response rating” value (rape; [3]) was 0 and the “Plant response rating, Rape” value (rape; [4]) was 0. For the same molecule, the “Rape plant response rating” value (rape; [5]) was 0, the “Rape plant response rating” value (rape; [6]) was 0 and the “Plant response rating, Rape” value (rape; [7]) was 0. The “Plant response rating, Rape” value (rape; [8]) was 0, the “Plant response rating, Barnyardgrass (0 to 10 scale, 0 is no effect, 10 is complete control)” value (bamyardgrass; [9]) was 0 and the “Barnyardgrass plant response rating (0 to 10 scale, 0 is no effect, 10 is complete control)” value (bamyardgrass; [10]) was 0. The “Barnyardgrass plant response rating” value (bamyardgrass; [11]) was 0, the “Barnyardgrass plant response rating” value (bamyardgrass; [12]) was 0 and the “Plant response rating, Redroot pigweed” value (pigweed; [1]) was 0. For the same molecule, the “Plant response rating, Redroot pigweed” value (pigweed; [2]) was 0, the “Redroot pigweed plant response rating” value (pigweed; [3]) was 0 and the “Redroot pigweed plant response rating” value (pigweed; [5]) was 0. The “Redroot pigweed plant response rating” value (pigweed; [6]) was 0, the “Plant response rating, Redroot pigweed” value (pigweed; [7]) was 0 and the “Plant response rating, Redroot pigweed” value (pigweed; [8]) was 0. The “Plant response rating, Rice (0 to 10 scale, 0 is no effect, 10 is complete control)” value (rice; [9]) was 0, the “Rice plant response rating (0 to 10 scale, 0 is no effect, 10 is complete control)” value (rice; [10]) was 0 and the “Rice plant response rating” value (rice; [11]) was 0. For the same molecule, the “Rice plant response rating” value (rice; [12]) was 0, the “Plant response rating, Sugarbeets” value (sugar beet; [1]) was 0 and the “Plant response rating, Sugarbeets” value (sugar beet; [2]) was 0. The “Sugarbeets plant response rating” value (sugar beet; [3]) was 0, the “Sugarbeets plant response rating” value (sugar beet; [5]) was 0 and the “Sugarbeets plant response rating” value (sugar beet; [6]) was 0. For the same molecule, the “Plant response rating, Sugarbeets” value (sugar beet; [7]) was 0, the “Plant response rating, Sugarbeets” value (sugar beet; [8]) was 0 and the “Plant response rating, S. Flatsedge (0 to 10 scale, 0 is no effect, 10 is complete control)” value (smallflower flatsedge; [9]) was 0. For the same molecule, the “S. Flatsedge plant response rating (0 to 10 scale, 0 is no effect, 10 is complete control)” value (smallflower flatsedge; [10]) was 0, the “S. Flatsedge plant response rating” value (smallflower flatsedge; [11]) was 0 and the “S. Flatsedge plant response rating” value (smallflower flatsedge; [12]) was 0. For the same molecule, the “Plant response rating, Giant foxtail” value (giant foxtail; [1]) was 0, the “Plant response rating, Giant foxtail” value (giant foxtail; [2]) was 0 and the “Giant foxtail plant response rating” value (giant foxtail; [3]) was 1. For the same molecule, the “Plant response rating, Giant foxtail” value (giant foxtail; [4]) was 7, the “Giant foxtail plant response rating” value (giant foxtail; [5]) was 0 and the “Giant foxtail plant response rating” value (giant foxtail; [6]) was 7. The “Plant response rating, Giant foxtail” value (giant foxtail; [7]) was 7, the “Plant response rating, Giant foxtail” value (giant foxtail; [8]) was 10 and the “Plant response rating, Morningglory” value (morningglory; [1]) was 1. For the same molecule, the “Plant response rating, Morningglory” value (morningglory; [2]) was 2, the “Morningglory plant response rating” value (morningglory; [3]) was 2 and the “Plant response rating, Morningglory” value (morningglory; [4]) was 8. For the same molecule, the “Morningglory plant response rating” value (morningglory; [5]) was 0, the “Morningglory plant response rating” value (morningglory; [6]) was 0 and the “Plant response rating, Morningglory” value (morningglory; [7]) was 0. For the same molecule, the “Plant response rating, Morningglory” value (morningglory; [8]) was 0, the “Plant response rating, B. signalgrass” value (surinam grass; [1]) was 0 and the “Plant response rating, B. signalgrass” value (surinam grass; [2]) was 0. The “B. signalgrass plant response rating” value (surinam grass; [3]) was 0, the “Plant response rating, B. signalgrass” value (surinam grass; [4]) was 0 and the “B. signalgrass plant response rating” value (surinam grass; [5]) was 0. The “B. signalgrass plant response rating” value (surinam grass; [6]) was 0, the “Plant response rating, B. signalgrass” value (surinam grass; [7]) was 0 and the “B. signalgrass plant response rating” value (surinam grass; [8]) was 0.
